# In patent publication US6835382B2, “Ii peptide therapeutics to enhance antigen presentation” (University of Massachusetts, priority 1996, dated 2004):
# Non-standard residues stand in square brackets, D forms with d. Orn = NCCC[C@H](N)C(=O)O
# Legend:
# [1] = molecular target: T1, murine E^d MHC class II allele (Mus musculus, UniProt P01904+P01915); experiment: simultaneous assay, E^d allele (A20 APC, G28.C9 T hybridoma, HEL106-116; HT-2 [3H]TdR readout); format: cell-based; design: The A20 and CH27 B cell lymphoma lines express H-2^d and H-2^k alleles, respectively; endogenous in cells; host or cells: A20 B cell lymphoma (mitomycin C-treated or paraformaldehyde-fixed)
# T1 sequence (P01904 26-255): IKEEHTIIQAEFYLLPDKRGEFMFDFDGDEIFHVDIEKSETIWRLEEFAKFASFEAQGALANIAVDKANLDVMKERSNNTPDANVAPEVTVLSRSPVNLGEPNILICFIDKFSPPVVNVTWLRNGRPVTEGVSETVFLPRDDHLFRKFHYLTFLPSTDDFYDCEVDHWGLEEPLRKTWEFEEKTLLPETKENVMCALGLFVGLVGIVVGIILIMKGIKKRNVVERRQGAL
# T1 sequence (P01915 27-264 limits assumed): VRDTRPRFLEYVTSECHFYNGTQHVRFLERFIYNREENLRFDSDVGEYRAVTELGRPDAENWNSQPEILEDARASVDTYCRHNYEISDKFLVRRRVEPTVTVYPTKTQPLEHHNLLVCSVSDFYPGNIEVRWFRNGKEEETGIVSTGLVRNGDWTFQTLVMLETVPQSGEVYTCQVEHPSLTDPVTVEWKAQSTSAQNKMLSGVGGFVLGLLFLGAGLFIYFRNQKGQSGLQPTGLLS
# In short: (§1)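 Antigenic peptide, mitomycin C-treated APC, effector compound and allele-restricted T hybridoma cultured together for 24 h. Supernatant then transferred to interleukin-dependent HT-2 cells. T cell activation quantified as [3H]TdR uptake by HT-2 cells.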
# [2] = system: murine E^k MHC class II allele; experiment: simultaneous assay, E^k allele (CH27 APC, TPc9.1 T hybridoma, THMCC82-103 or PGCC81-104); format: cell-based
# In short: as §1
# [3] = Table 7, AE peptide 64 μM, supernatant 1:4
# [4] = Table 7, AE peptide 64 μM, supernatant 1:4, normalized by a factor of 5
# [5] = Table 2, AE peptide 64 μM, 0.05 μM HEL106-116, supernatant 1:2
# [6] = Table 2, AE peptide 64 μM, 0.05 μM PGCC81-104, supernatant 1:2
# [7] = Table 15, AE peptide 16 μM, supernatant 1:4
# [8] = Table 4, AE109 homolog 64 μM, supernatant 1:2
# [9] = Table 16, AE peptide 4 μM, supernatant 1:8
# [10] = Table 1, AE peptide 16 μM (second value), 0.4 μM HEL106-116, supernatant 1:4
# [11] = Table 1, AE peptide 64 μM (first value), 0.4 μM HEL106-116, supernatant 1:4
# [12] = Table 11, AE peptide 64 μM, supernatant 1:8
# [13] = Table 13, AE peptide 1 μM (fourth value), supernatant 1:4
# [14] = Table 13, AE peptide 4 μM (third value), supernatant 1:4
# [15] = Table 13, AE peptide 16 μM (second value), supernatant 1:4
# [16] = Table 13, AE peptide 64 μM (first value), supernatant 1:4
# [17] = Table 14, AE peptide 64 μM, supernatant 1:4
# [18] = Table 18, AE peptide 64 μM, supernatant 1:4
# [19] = Table 1, AE peptide 16 μM (second value), 0.075 μM THMCC82-103, supernatant 1:2
# [20] = Table 1, AE peptide 64 μM (first value), 0.075 μM THMCC82-103, supernatant 1:2
# [21] = Table 11, AE peptide 64 μM, supernatant 1:4
substance,measurement,setting,value
Ac-LRMK D PK-NH2 (Ac-LRMKDPK-NH2) [AE230],"Times Baseline Response, E^d",[1]; [3],0.6
same,"Times Baseline Response, E^k",[2]; [4],1.1
Ac-LQLDSLRMKLPKSAK-NH2 [AE151],"Times Baseline Response, E^d",[1]; [5],2.5
same,"Times Baseline Response, E^k",[2]; [6],0.6
same,"activity in simultaneous assay on E^k, in words",[2]; Tables 2 and 18,inhibition
Ac-LRMK N PK-NH2 (Ac-LRMKNPK-NH2) [AE232],"Times Baseline Response, E^d",[1]; [3],12.5
same,"Times Baseline Response, E^d",[1]; [7],24.3
same,"Times Baseline Response, E^k",[2]; [4],8.9
same,"Times Baseline Response, E^k",[2]; [7],15.5
Ac-Y N MKLPKSAK-NH2 [AE137],"Times Baseline Response, E^d",[1]; [8],0.8
same,"Times Baseline Response, E^k",[2]; [8],0.7
Ac-LRMK[Orn]PK-NH2 [AE225],"Times Baseline Response, E^d",[1]; [3],10.4
same,"Times Baseline Response, E^k",[2]; [4],13.9
Ac-Y K MKLPKSAK-NH2 [AE134],"Times Baseline Response, E^d",[1]; [8],0.7
same,"Times Baseline Response, E^d",[1]; [9],1.2
same,"Times Baseline Response, E^k",[2]; [8],0.9
same,"Times Baseline Response, E^k",[2]; [9],1.3
Ac-Y M MKLPKSAK-NH2 [AE141],"Times Baseline Response, E^d",[1]; [8],1.1
same,"Times Baseline Response, E^k",[2]; [8],1.3
Ac-LRMKLPK-NH2 [AE114],"Times Baseline Response, E^d",[1]; [10],26.0
same,"Times Baseline Response, E^d",[1]; [11],39.8
same,"Times Baseline Response, Ed","[1]; Table 3, AE peptide 64 μM, supernatant 1:4",10.0
same,"Times Baseline Response, E^d","[1]; Table 5, AE peptide 64 μM, supernatant 1:4",10.0
same,"Times Baseline Response, E^d","[1]; Table 6, AE peptide 64 μM, supernatant 1:4",10.6
same,"Times Baseline Response, E^d",[1]; [3],10.6
same,"Times Baseline Response, E^d","[1]; Table 9, AE peptide 64 μM, supernatant 1:4",7.7
same,"Times Baseline Response, E^d",[1]; [12],24.1
same,"Times Baseline Response, E^d","[1]; Table 12, AE peptide 1 μM (fourth value), supernatant 1:2",5
same,"Times Baseline Response, E^d","[1]; Table 12, AE peptide 4 μM (third value), supernatant 1:2",62
same,"Times Baseline Response, E^d","[1]; Table 12, AE peptide 16 μM (second value), supernatant 1:2",115
same,"Times Baseline Response, E^d","[1]; Table 12, AE peptide 64 μM (first value), supernatant 1:2",103
same,"Times Baseline Response, E^d",[1]; [13],2
same,"Times Baseline Response, E^d",[1]; [14],18
same,"Times Baseline Response, E^d",[1]; [15],65
same,"Times Baseline Response, E^d",[1]; [16],48
same,"Times Baseline Response, E^d",[1]; [17],12.4
same,"Times Baseline Response, E^d",[1]; [7],228
same,"Times Baseline Response, E^d",[1]; [9],15.7
same,"Times Baseline Response, E^d","[1]; Table 17, AE peptide 4 μM, supernatant 1:4",47
same,"Times Baseline Response, E^d",[1]; [18],12.4
same,"Times Baseline Response, E^k",[2]; [19],3.9
same,"Times Baseline Response, E^k",[2]; [20],15.9
same,"Times Baseline Response, Ek","[2]; Table 3, AE peptide 64 μM, supernatant 1:4, values reduced relative to E^d by a factor of 10",26.9
same,"Times Baseline Response, E^k","[2]; Table 5, AE peptide 64 μM, supernatant 1:4, normalized to E^d by a factor of 10",26.9
same,"Times Baseline Response, E^k","[2]; Table 6, AE peptide 64 μM, supernatant 1:4, reduced by a factor of 5",10.7
same,"Times Baseline Response, E^k",[2]; [4],10.7
same,"Times Baseline Response, E^k","[2]; Table 9, AE peptide 64 μM, supernatant 1:4, normalized by a factor of 5",13.2
same,"Times Baseline Response, E^k",[2]; [21],5.2
same,"Times Baseline Response, E^k","[2]; Table 12, AE peptide 1 μM (fourth value), supernatant 1:4",2.1
same,"Times Baseline Response, E^k","[2]; Table 12, AE peptide 4 μM (third value), supernatant 1:4",4.9
same,"Times Baseline Response, E^k","[2]; Table 12, AE peptide 16 μM (second value), supernatant 1:4",19.3
same,"Times Baseline Response, E^k","[2]; Table 12, AE peptide 64 μM (first value), supernatant 1:4",51.5
same,"Times Baseline Response, E^k",[2]; [13],2.1
same,"Times Baseline Response, E^k",[2]; [14],4.9
same,"Times Baseline Response, E^k",[2]; [15],19.3
same,"Times Baseline Response, E^k",[2]; [16],51.5
same,"Times Baseline Response, E^k",[2]; [17],40.3
same,"Times Baseline Response, E^k",[2]; [7],18.2
same,"Times Baseline Response, E^k",[2]; [9],1.2
same,"Times Baseline Response, E^k","[2]; Table 17, AE peptide 64 μM, supernatant 1:4",2.8
same,"Times Baseline Response, E^k",[2]; [18],40.3
Ac-LRMK l PK-NH2 [AE164],"Times Baseline Response, E^d",[1]; [12],17.7
same,"Times Baseline Response, E^d",[1]; [17],12.9
same,"Times Baseline Response, E^k",[2]; [21],3.8
same,"Times Baseline Response, E^k",[2]; [17],43.9
Ac-LRM k LPK-NH2 [AE163],"Times Baseline Response, E^d",[1]; [12],2.4
same,"Times Baseline Response, E^k",[2]; [21],1.1
Ac-SLRMKLPKSAK-NH2 [AE155],"Times Baseline Response, E^d",[1]; [5],23.4
same,"Times Baseline Response, E^k",[2]; [6],8.4
Ac-YRMKL hydrP KSAK-NH2 (Ac-YRMKL[hydrP]KSAK-NH2) [AE143],"Times Baseline Response, E^d","[1]; Table 8, AE peptide 4 μM (third), supernatant 1:8",8.0
same,"Times Baseline Response, E^d","[1]; Table 8, AE peptide 16 μM (second), supernatant 1:8","19.6,"
same,"Times Baseline Response, E^d","[1]; Table 8, AE peptide 64 μM (first), supernatant 1:8","19.4,"
same,"Times Baseline Response, E^k","[2]; Table 8, AE peptide 4 μM (third), supernatant 1:4",0.98
same,"Times Baseline Response, E^k","[2]; Table 8, AE peptide 16 μM (second), supernatant 1:4","1.5,"
same,"Times Baseline Response, E^k","[2]; Table 8, AE peptide 64 μM (first), supernatant 1:4","4.2,"
Ac-LR (mL) KLPK-NH2 [AE302],"Times Baseline Response, E^d",[1]; [17],4.5
same,"Times Baseline Response, E^k",[2]; [17],26.1
Ac-LRMK F PK-NH2 (Ac-LRMKFPK-NH2) [AE234],"Times Baseline Response, E^d",[1]; [3],14.2
same,"Times Baseline Response, E^k",[2]; [4],16.6
Ac-YRMKLP-NH2 [AE115],"Times Baseline Response, E^d",[1]; [10],5.7
same,"Times Baseline Response, E^d",[1]; [11],19.9
same,"Times Baseline Response, E^k",[2]; [19],3.8
same,"Times Baseline Response, E^k",[2]; [20],18.6
